In ChEMBL document CHEMBL1201862, “PubChem BioAssay data set” (2004):
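Method: 48-hour compound exposure of cells in 96-well plates, five concentrations, linear interpolation of endpoints. The concentration for 50% growth inhibition is given as GI50.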 Active and inactive are the calls of the source. Cut-off read from the data, not from the text of the source: active = GI50 up to about 1.1 µM and inactive = higher.

Tests used:
Assay in all cases: NCI anticancer screen, dose series, 48 h
[1] = tested on: SK-MEL-28
[2] = tested on: SK-OV-3
[3] = tested on: HOP-18
[4] = tested on: SNB-75
[5] = tested on: DLD-1
[6] = tested on: PC-3
[7] = tested on: NCI-H460
[8] = tested on: Malme-3M
[9] = tested on: LOX IMVI
[10] = tested on: DMS-114
[11] = tested on: SNB-78
[12] = tested on: MCF7
[13] = tested on: SF-295
[14] = tested on: DU-145
[15] = tested on: Hs-578T
[16] = tested on: SF-268
[17] = tested on: T47D
[18] = tested on: NCI-H226
[19] = tested on: OVCAR-5
[20] = tested on: CCRF-CEM
[21] = tested on: UACC-62
[22] = tested on: TK-10
[23] = tested on: RXF 631
[24] = tested on: HOP-62
[25] = tested on: IGROV-1
[26] = tested on: SR
[27] = tested on: SN12C
[28] = tested on: OVCAR-8
[29] = tested on: OVCAR-3
[30] = tested on: DMS-273
[31] = tested on: HT-29
[32] = tested on: HCC 2998
[33] = tested on: NCI-H23
[34] = tested on: RXF 393
[35] = tested on: CAKI-1
[36] = tested on: SK-MEL-5
[37] = tested on: SF-539
[38] = tested on: 786-0
[39] = tested on: SK-MEL-2
[40] = tested on: HCT-116
[41] = tested on: MDA-MB-435
[42] = tested on: A498
[43] = tested on: KM-20L2
[44] = tested on: NCI/ADR-RES
[45] = tested on: MDA-N
[46] = tested on: SNB-19
[47] = tested on: MDA-MB-231
[48] = tested on: COLO 205
[49] = tested on: M19-MEL
[50] = tested on: LXFL 529
[51] = tested on: EKVX
[52] = tested on: BT-549
[53] = tested on: OVCAR-4
[54] = tested on: KM12
[55] = tested on: HOP-92
[56] = tested on: HCT-15
[57] = tested on: K562
[58] = tested on: M14
[59] = tested on: A549
[60] = tested on: SW-620
[61] = tested on: UO-31
[62] = tested on: HL-60
[63] = tested on: MOLT-4
[64] = tested on: NCI-H522
[65] = tested on: ACHN
[66] = tested on: U-251
[67] = tested on: RPMI-8226
[68] = tested on: UACC-257

`CCCC(=O)N[C@H]1CCc2cc(OC)c(OC)c(OC)c2-c2ccc(SC)c(=O)cc21` was tested, and the GI50 [1] was < 0.01 µM (active), the GI50 [2] was 0.143 µM (active) and the GI50 [3] was > 35.8 µM (inactive). The GI50 [4] was < 0.01 µM (active), the GI50 [5] was < 0.01 µM (active) and the GI50 [6] was < 0.01 µM (active). The GI50 [7] was < 0.01 µM (active), the GI50 [8] was < 0.01 µM (active) and the GI50 [9] was < 0.01 µM (active). For the same compound, the GI50 [10] was < 0.01 µM (active), the GI50 [11] was < 0.01 µM (active) and the GI50 [12] was < 0.01 µM (active). For the same compound, the GI50 [13] was < 0.01 µM (active), the GI50 [14] was < 0.01 µM (active) and the GI50 [15] was < 0.01 µM (active). The GI50 [16] was < 0.01 µM (active), the GI50 [17] was > 100 µM (inactive) and the GI50 [18] was < 0.0465 µM (active). For the same compound, the GI50 [19] was 0.278 µM (active), the GI50 [20] was < 0.0465 µM (active) and the GI50 [21] was < 0.01 µM (active). The GI50 [22] was < 0.0411 µM (active), the GI50 [23] was < 0.01 µM (active) and the GI50 [24] was < 0.01 µM (active). For the same compound, the GI50 [25] was < 0.01 µM (active), the GI50 [26] was < 0.01 µM (active) and the GI50 [27] was < 0.01 µM (active). The GI50 [28] was < 0.01 µM (active), the GI50 [29] was < 0.01 µM (active) and the GI50 [30] was < 0.01 µM (active). The GI50 [31] was < 0.01 µM (active), the GI50 [32] was < 0.01 µM (active) and the GI50 [33] was < 0.01 µM (active). The GI50 [34] was 0.175 µM (active), the GI50 [35] was < 0.01 µM (active) and the GI50 [36] was < 0.01 µM (active). The GI50 [37] was < 0.01 µM (active), the GI50 [38] was < 0.01 µM (active) and the GI50 [39] was < 0.01 µM (active). For the same compound, the GI50 [40] was < 0.01 µM (active), the GI50 [41] was < 0.01 µM (active) and the GI50 [42] was < 0.01 µM (active). The GI50 [43] was < 0.01 µM (active), the GI50 [44] was 0.016 µM (active) and the GI50 [45] was < 0.01 µM (active). For the same compound, the GI50 [46] was < 0.01 µM (active), the GI50 [47] was < 0.01 µM (active) and the GI50 [48] was < 0.01 µM (active). For the same compound, the GI50 [49] was < 0.01 µM (active), the GI50 [50] was < 0.01 µM (active) and the GI50 [51] was 51.9 µM (inactive). The GI50 [52] was < 0.01 µM (active), the GI50 [53] was 17.1 µM (inactive) and the GI50 [54] was < 0.01 µM (active). The GI50 [55] was < 0.01 µM (active), the GI50 [56] was 0.0109 µM and the GI50 [57] was < 0.01 µM (active). For the same compound, the GI50 [58] was < 0.01 µM (active), the GI50 [59] was < 0.01 µM (active) and the GI50 [60] was < 0.01 µM (active). The GI50 [61] was 0.31 µM (active), the GI50 [62] was < 0.01 µM (active) and the GI50 [63] was < 0.01 µM (active). For the same compound, the GI50 [64] was < 0.01 µM (active), the GI50 [65] was < 0.01 µM (active) and the GI50 [66] was < 0.01 µM (active). For the same compound, the GI50 [67] was 0.0631 µM (active).

With `O=C(NCCCN1CCN(CCCNC(=O)c2cnc3ccccc3n2)CC1)c1cnc2ccccc2n1` the GI50 [1] was > 100 µM (inactive), the GI50 [2] was > 100 µM (inactive) and the GI50 [3] was > 100 µM (inactive). For the same compound, the GI50 [4] was > 100 µM (inactive), the GI50 [5] was > 100 µM (inactive) and the GI50 [7] was > 100 µM (inactive). For the same compound, the GI50 [8] was > 100 µM (inactive), the GI50 [9] was 76.6 µM (inactive) and the GI50 [10] was 70.1 µM (inactive). For the same compound, the GI50 [11] was > 100 µM (inactive), the GI50 [13] was > 100 µM (inactive) and the GI50 [16] was > 100 µM (inactive). The GI50 [18] was 86.5 µM (inactive), the GI50 [20] was > 100 µM (inactive) and the GI50 [21] was > 100 µM (inactive). The GI50 [23] was > 100 µM (inactive), the GI50 [24] was > 100 µM (inactive) and the GI50 [25] was > 100 µM (inactive). The GI50 [27] was > 100 µM (inactive), the GI50 [28] was > 100 µM (inactive) and the GI50 [29] was > 100 µM (inactive). The GI50 [68] was > 100 µM (inactive), the GI50 [30] was > 100 µM (inactive) and the GI50 [31] was 88.3 µM (inactive). The GI50 [32] was > 100 µM (inactive), the GI50 [34] was > 100 µM (inactive) and the GI50 [35] was > 100 µM (inactive). For the same compound, the GI50 [36] was > 100 µM (inactive), the GI50 [37] was > 100 µM (inactive) and the GI50 [38] was > 100 µM (inactive). For the same compound, the GI50 [39] was > 100 µM (inactive), the GI50 [40] was 44.8 µM (inactive) and the GI50 [42] was 82 µM (inactive). The GI50 [43] was > 100 µM (inactive), the GI50 [46] was > 100 µM (inactive) and the GI50 [48] was > 100 µM (inactive). For the same compound, the GI50 [49] was > 100 µM (inactive), the GI50 [50] was > 100 µM (inactive) and the GI50 [51] was > 100 µM (inactive). For the same compound, the GI50 [53] was > 100 µM (inactive), the GI50 [54] was > 100 µM (inactive) and the GI50 [56] was over 100 µM. The GI50 [57] was > 100 µM (inactive), the GI50 [58] was > 100 µM (inactive) and the GI50 [59] was > 100 µM (inactive). The GI50 [60] was > 100 µM (inactive), the GI50 [61] was > 100 µM (inactive) and the GI50 [62] was > 100 µM (inactive). For the same compound, the GI50 [63] was 44.8 µM (inactive), the GI50 [64] was 90.8 µM (inactive) and the GI50 [65] was 74.1 µM (inactive). The GI50 [66] was > 100 µM (inactive) and the GI50 [67] was > 100 µM (inactive).
